Data as given in patent US20180117159A1, “Method for producing solid formulations with improved dissolution by annealing with an adjuvant” (priority 2016, published 2018).

Legend:
Assay type in all cases: physicochemical
[1] = differential scanning calorimetry of annealed indomethacin-PVP mixtures (absence of melting endotherm = all drug dissolved)
Experimental: Binary physical mixtures of the drug indomethacin and the polymer PVP (polyvinylpyrrolidone K29/32), both used as received, were mixed in various ratios, so the drug weight fraction ranged from 2.5-30% w/w (compared to the total physical mixture). Mixing was done for 15 minutes using a mortar and pestle. Solid solutions were then prepared by annealing and annealing with an adjuvant.
Annealing was done by transferring weighed samples of the physical mixtures into glass vials, which were then stored in an oven without inducing a vacuum at 130° C. for 6 days to equilibrate and allow the indomethacin to distribute and dissolve in the PVP. After annealing, the samples were allowed to cool to room temperature.
Annealing with an adjuvant was done by transferring weighed amounts of the physical mixtures into glass vials, then adding the adjuvant ethanol dropwise to the surface of the physical mixture in each vial in an adjuvant weight equal to approximately 25% of each dry drug-polymer physical mixture sample. No mixing of the adjuvant and physical mixture was done after adding the ethanol drops. The drug, polymer and adjuvant were then allowed to anneal in an oven at 70° C., with some samples annealing for 4 hours, some for 8 hours and some for 12 hours. After annealing with an adjuvant for each specified time, the samples were allowed to cool to room temperature. […]

[2] = dissolution, USP Type II (paddle) apparatus, 150 mg formulation in 500 mL phosphate buffer pH 2.5 at 37° C.; conditions: pH 2.5 buffer, 30 minutes
Experimental: Dissolution experiments were done using a USP Type II (paddle type) apparatus, dissolving 150 mg of formulation in 500 mL of water buffered to a pH of 2.5 using phosphate buffer at 37° C. This corresponded to 15 mg of indomethacin per 500 mL of dissolution medium for the 10% indomethacin formulation, and 30 mg of indomethacin per 500 mL of dissolution medium for the 20% indomethacin formulation. In addition, pure indomethacin was dissolved in a similar USP type II apparatus for 30 minutes for comparison. […]

[3] = solubility of indomethacin in aqueous buffer at pH 2.5 (excess solid, stirred, 20 nm filtered, HPLC)
Experimental: In addition to Examples 1-6, other experiments were done in which the solubility of indomethacin in aqueous buffer at pH 2.5 was determined. This was done by placing an excess amount of indomethacin solid (approximately 100 mg) in 20 mL of the buffer and stirring at a constant temperature of 37° C. for three days, after which an aliquot was taken and filtered through a Watman Anotop-10 20 nm filter, then assayed by HPLC for the dissolved indomethacin concentration in the solution. Subsequently, the temperature of the remaining indomethacin-buffer mixture was raised to approximately 95° C. and kept at that temperature with stirring for an additional 24 hours. After 24 hours, the dissolved indomethacin concentration was again determined by taking an aliquot, filtering through a 20 nm Anotop-10 filter, and assaying by HPLC.

indomethacin concentration in PVP up to which all of the drug dissolved (no melting endotherm by DSC) ([1]; annealed with ethanol adjuvant (about 25% of mixture weight) for 12 hours at 70° C.): approximately 15 % by weight
indomethacin concentration in PVP up to which all of the drug dissolved (no melting endotherm by DSC) ([1]; annealed without an adjuvant for 6 days at 130° C.): approximately 15 % by weight
dissolution in the aqueous buffer compared with indomethacin in physical mixtures with PVP [2]: much slower
estimate for the solubility of indomethacin in the aqueous buffer ([3]; 37° C., pH 2.5, estimate from solubility experiment and Example 1 dissolution): one to two
solubility at 3 days ([3]; aqueous buffer, thermodynamic from solid, pH 2.5, 37° C., after three days stirring, read-out: dissolved indomethacin concentration (solubility) in aqueous buffer): < 1 µg/mL
solubility ([3]; aqueous buffer, thermodynamic from solid, pH 2.5, three days at 37° C. plus an additional day at 95° C., read-out: dissolved indomethacin concentration (solubility) in aqueous buffer): ~27 µg/mL
dissolved indomethacin concentration (solubility) in aqueous buffer ([3]; pH 2.5, 37° C., after three days stirring): below one
Structure (SMILES): COc1ccc2c(c1)c(CC(=O)O)c(C)n2C(=O)c1ccc(Cl)cc1 [indomethacin]
